The subject of the assay is red blood cell (RBC). Nature of the assay: Cell-based antioxidant protection in erythrocytes (CAP-e) assay. The settings on record: human RBC, AAPH; biphasic dose response; FIG. 2. From the text: As a model cell type, red blood cell (RBC) was used. This is an inert cell type, in contrast to other cell types such as PMN cells as described in section 2, where pro-inflammatory compounds may induce the reactive oxidative burst, or anti-inflammatory compounds may perform cellular signaling and change the behavior of the PMN cell, at doses many times below levels of detection for antioxidants. This assay was developed particularly to be able to assess antioxidants from complex natural products in a cell-based system. Human RBC were washed repeatedly physiological saline, and then exposed to the test products. During the incubation with the test products, any antioxidant compounds able to cross the cell membrane will enter the interior of the RBC. Then the RBC are washed to remove compounds that were not absorbed by the cells, loaded with the DCF-DA dye, which turns fluorescent upon exposure to reactive oxygen species. Oxidation was triggered by addition of the peroxyl free radical generator AAPH. The fluorescence intensity was evaluated. The low fluorescence intensity of untreated control cells served as a baseline, and RBC treated with AAPH alone served as a positive control for maximum oxidative damage.

These results are taken from patent US20130196934A1, “COMPOSITION FOR PERINATAL AND NEONATAL STROKE” (priority 2010, published 2013).

In the case of `O=C[C@H](O)[C@H](O)[C@H](O)CO` [ribose, Ribose], the “antioxidant protection of erythrocytes from oxidative damage” value is “protected the erythrocytes”.
